Results published in article PMC6625372 (Frontiers in Oncology, 2019).

What was measured:
CLB-BAR [1] = assay: Apoptosis analysis, cleaved PARP immunoblot; format: cell-based; conditions: 100 nM, 24 h
CLB-GE [2] = assay: Apoptosis analysis, cleaved PARP immunoblot; format: cell-based; conditions: 100 nM, 24 h
[3] = test system: SK-N-AS (11q-del, K-RasQ61K); assay: Apoptosis analysis, cleaved PARP immunoblot; format: cell-based; conditions: 100 nM, 24 h
CLB-PE = assay: Apoptosis analysis, cleaved PARP immunoblot; format: cell-based; conditions: 100 nM, 24 h
Procedure: (§1) Supplementary Figure 3. Investigation of apoptosis in wild type neuroblastoma cell lines when treated with alectinib. […] Cell lysates were immunoblotted for PARP and ERK (employed as loading control). […] Three independent experiments were performed.

IMR-32 = assay: Apoptosis analysis, cleaved PARP immunoblot; format: cell-based; conditions: IMR-32, 100 nM, 24 h
Procedure: as §1

CLB-BAR cells = assay: Neuroblastoma xenograft mouse model with tumor immunohistochemistry; format: in vivo, BALB/cAnNRj-Foxn1nu mice; conditions: for CD31 (vascularization) in tumors / Ki-67 positivity in tumors, analysis by Ilastik / cleaved caspase positive apoptotic cells in tumors vs vehicle / phospho-histone H3 in tumors vs vehicle / Ki-67 manual analysis, lower median when compared to vehicle (95% CI): day 14; for CD31 (vascularization) in tumors / Ki-67 positivity in tumors, analysis by Ilastik / cleaved caspase positive apoptotic cells in tumors vs vehicle / phospho-histone H3 in tumors vs vehicle: alectinib 20 mg/kg, crizotinib 80 mg/kg once daily; for Ki-67 manual analysis, lower median when compared to vehicle (95% CI): counts normalized against vehicle, 4 independent investigators
Procedure: Results for repotrectinib will be presented elsewhere. […] Tumor volume was measured by calipers every second day and calculated by the following equation: V = (π/6) × L × W^2 (V, volume; L, longest; W, width).
At the end of the experiment xenograft tumors (n = 5 for each tumor category) were harvested and fixed in 4% paraformaldehyde for 72 h. Following fixation, the tumors were imbedded in paraffin blocks and sectioned in […] slices with a manual microtome. Heat-induced epitope retrieval (HIER), using citrate buffer 0.01 M, pH 6, was performed before staining. HIER was achieved through a sequence where citrate buffer, containing the slides, was brought up to boiling, sub-boiled for 5 min following 10 s of intermediate cooling. The sequence was performed three times with cooling (5 min) in between. Following washing in distillated H2O (3 × 5 min), the slides were immerged in 3% H2O2 for 15 min and then washed in tris-buffered saline-Tween 20 (TBST) for 5 min. A hydrophobic pen was used to set a margin encircling the samples on the slides. […] The slides were incubated for 48 h in a cold room after being covered with antibody diluent. […] Additional washing steps in TBST (3 × 5 min) were carried out. […] The slides were counterstained with Mayer's hematoxylin solution (Sigma-Aldrich SLBK8961V), dehydrated and mounted.
Hamamatsu NanoZoomer-SQ Digital slide scanner (C13140-01) with a x20 (NA 0.75) objective was used to obtain digital images of the slides. Slides were randomly blinded to the investigator. For each of the blinded slides, a representative 1 mm^2 area was selected employing NanoZoomer Digital Pathology viewer. The slide-image was cropped, containing the area of interest, and saved, as a TIF-file at × 20 resolution. The saved TIF-files were cropped, using ImageJ (Fiji) ([44]), into merely encompassing the 1 mm^2 area of interest.
The 6–7 images were then uploaded into Ilastik ([45]), an interactive machine-learning toolkit, and used as a learning foundation for the software (see program code, Supplementary Data Sheet 3). Once the software analyzed the learning images, the whole batches were processed in Ilastik. The output was then transferred to ImageJ where a macro (see program code, Supplementary Data Sheet 2) calculated the area of staining. The pixel size acquired from NanoZoomer Digital Pathology viewer was accounted for in the macro. Ki-67 immunohistochemistry was also analyzed manually. […] Ninety five percent confidence intervals for the difference between median were retrieved with GraphPad.
GraphPad Prism 7.0 was used for statistical analysis. A non-parametric test was performed acquiring P-values by applying a Mann-Whitney test.

CLB-BAR [4] = assay: Cell cycle analysis (DAPI, NucleoCounter NC-3000); conditions: 24 h, 75 and 150 nM
CLB-GE [5] = assay: Cell cycle analysis (DAPI, NucleoCounter NC-3000); conditions: 24 h, 75 and 150 nM
SK-N-AS = assay: Cell cycle analysis (DAPI, NucleoCounter NC-3000); conditions: SK-N-AS control cell line, 24 h, 75 and 150 nM

Row | SMILES | cleaved PARP levels (CLB-BAR [1]) | cleaved PARP levels (CLB-GE [2]) | cleaved PARP levels [3] | cleaved PARP levels (CLB-PE) | cleaved PARP levels (IMR-32) | growth of neuroblastoma xenografts (CLB-BAR cells; 20 mg/kg bodyweight once daily, 14 days, vs vehicle) | body weight and side effects during treatment (CLB-BAR cells; 20 mg/kg once daily, 14 days) | xenograft tumor volume compared with vehicle (CLB-BAR cells; 20 mg/kg once daily, day 6 p = 0.0222, day 8 p < 0.0001, day 14 p = 0.0072) | tumor growth inhibition compared with crizotinib (CLB-BAR cells; alectinib 20 mg/kg vs crizotinib 80 mg/kg once daily, 14 days) | CD31 (vascularization) in tumors (CLB-BAR cells) | Ki-67 positivity in tumors, analysis by Ilastik (CLB-BAR cells) | cleaved caspase positive apoptotic cells in tumors vs vehicle (CLB-BAR cells) | phospho-histone H3 in tumors vs vehicle (CLB-BAR cells) | Ki-67 manual analysis, lower median when compared to vehicle (95% CI) (CLB-BAR cells) | cell cycle progression, G1 accumulation (CLB-BAR [4]) | cell cycle progression, G1 accumulation (CLB-GE [5]) | cell cycle progression, G1 accumulation (SK-N-AS)
1 | CCc1cc2c(cc1N1CCC(N3CCOCC3)CC1)C(C)(C)c1[nH]c3cc(C#N)ccc3c1C2=O [alectinib] | significant increase of cleaved PARP levels | significant increase of cleaved PARP levels | no difference was observed | no difference was observed | no difference was observed | effectively abrogated growth | No difference in body weight or obvious side effects | significantly reduced | more effective than with crizotinib | significant increase | non-significant decrease | significantly lower | significant decrease | 0.46 (95% CI 0.32–0.52) | increased G1 accumulation | increased G1 accumulation | not observed
2 | C[C@@H](Oc1cc(-c2cnn(C3CCNCC3)c2)cnc1N)c1c(Cl)ccc(F)c1Cl [crizotinib] |  |  |  |  |  |  |  |  |  | significant increase | modest, but significant reduction | non-significant decrease | not observed | 0.49 (95% CI 0.47–0.50) |  |  | 
